The record followed here is BindingDB's records for doi:10.1021/acs.biochem.7b00078 (The University of Queensland, 2017).

Assay [1] has as its target T1, Na(+)/H(+) exchange regulatory cofactor NHE-RF1 [133-300] (Homo sapiens, UniProt O14745).
T1 construct: 133-300
T1 sequence (O14745 whole entry): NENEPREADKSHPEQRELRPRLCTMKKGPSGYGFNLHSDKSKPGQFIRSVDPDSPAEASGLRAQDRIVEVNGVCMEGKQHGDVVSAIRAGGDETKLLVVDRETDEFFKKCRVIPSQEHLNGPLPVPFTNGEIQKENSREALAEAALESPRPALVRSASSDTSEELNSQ
As to the kind of experiment: Fluorescent Polarization Competition Assay. Conditions: 23 °C. As for the experimental part: (§1) Competition assays were performed in FP buffer (DTT was avoided for Cys-PTHRct-9) containing fixed concentrations of both the fluorescently labeled peptide andprotein following the protocol described by Madden and coworkers. [Cushing et al., Biochemistry, 47:10084-10098] This mixture was equilibrated for 20 min in the dark at room temperature. The unlabeled competitor peptide was dissolved and serially diluted in storage buffer supplemented with 5% DMSO (Sigma). Each serial dilution was aliquoted at 1/10 final volume, to which was added 9/10 volume of the protein/peptide mixture. All FP assays were performed in a 96-well format. Polarized fluorescence intensities were measured at 23 °C with a PerkinElmer Wallac Victor3 multilabel counter using excitation and emission wavelengths of 485 and 535 nm, respectively, for the FITC-labeled peptide.

In assay [2] the target is T2, Na(+)/H(+) exchange regulatory cofactor NHE-RF1 [1-140] (Homo sapiens, UniProt O14745).
T2 construct: 1-140
T2 sequence (O14745 whole entry): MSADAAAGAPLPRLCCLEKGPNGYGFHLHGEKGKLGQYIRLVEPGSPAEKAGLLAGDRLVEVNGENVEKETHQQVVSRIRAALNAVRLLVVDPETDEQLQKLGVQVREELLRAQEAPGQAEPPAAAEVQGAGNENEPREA
In words: Surface Plasmon Resonance (SPR). Conditions: pH 7.4; 15 °C. As for the experimental part: (§2) SPR measurements were performed with a Biacore X100 instrument (GE Healthcare Life Sciences, Piscataway, NJ) at 15.0 °C. The biotinylated PTHRct-22 ligand was immobilized on an SA streptavidin sensor chip (GE Healthcare Life Sciences) usingthe manufacturer's protocol until the desired response target was reached. PDZ1 or PDZ2 analyte, dissolved in 10 mM HEPES buffer (pH 7.4), 150 mM NaCl, 3 mM EDTA, and 0.005% surfactant polysorbate 20, was injected on the PTHRct-coated sensor surface at increasing concentrations from 10 nM to 100 μM. At the end of each ligand injection−dissociation cycle, the sensor chip was regenerated with 4.0 M MgCl2, 50 mM triethylamine (pH 9.15), and HBS-EP buffer.

The target in assay [3] is T1, Na(+)/H(+) exchange regulatory cofactor NHE-RF1 [133-300]. In words: Surface Plasmon Resonance (SPR). To be noted: pH 7.4; 15 °C. The method, then:
as §2

In assay [4] the target is T2, Na(+)/H(+) exchange regulatory cofactor NHE-RF1 [1-140]. As to the kind of experiment: Fluorescent Polarization Competition Assay. Conditions: 23 °C. The method, then: as §1
The target is the same in assay [5]. In words: Isothermal Titration Calorimetry (ITC). To be noted: pH 8; 25 °C. The method, then: (§3) ITC measurements were conducted on a Microcal iTC200 (Malvern Instruments) in buffer consisting of 25 mM Tris (pH 8.0) and 100 mM NaCl. Proteins were exchanged into ITC buffer by gel filtration using a Superdex200 column. Wild-type modified synthetic peptides were purchased from Genscript and are described in Results. One millimolar PTHR peptides (wild-type and mutant variants) were titrated into 100 μM individual proteins, PDZ1 or PDZ2, at 25 °C.

Assay [6] concerns the target T1, Na(+)/H(+) exchange regulatory cofactor NHE-RF1 [133-300]. As to the kind of experiment: Isothermal Titration Calorimetry (ITC). Conditions: pH 8; 25 °C. The method, then:
as §3
(In general: ITC needs no label: the signal is the heat of the interaction.)

Peptide text beside a SMILES is read from it. * marks the point of attachment. FITC = O=C1OC2(c3ccc(O)cc3Oc3cc(O)ccc32)c2ccc(NC(=S)*)cc21; Biotin = O=C1N[C@H]2[C@H](CS[C@H]2CCCCC(=O)*)N1

Consider `CSCC[C@H](NC(=O)[C@@H](NC(=O)[C@@H](NC(=O)[C@H](CCC(=O)O)NC(=O)[C@H](Cc1c[nH]c2ccccc12)NC(=O)[C@H](CCC(=O)O)NC(=O)[C@H](CCC(=O)O)NC(=O)[C@H](CCC(N)=O)NC(=O)[C@H](CC(C)C)NC(=O)[C@H](CC(C)C)NC(=O)[C@H](C)NC(=O)[C@@H]1CCCN1C(=O)[C@@H]1CCCN1C(=O)[C@H](CCCNC(=N)N)NC(=O)[C@H](CCC(=O)O)NC(=O)[C@@H]1CCCN1C(=O)[C@H](CS)NC(=O)[C@H](CO)NC(=O)[C@H](C)NC(=O)[C@H](CCC(=O)O)NC(=O)[C@H](CCC(=O)O)NC(=O)[C@H](CC(=O)O)NC(=O)CCCC[C@@H]1SC[C@@H]2NC(=O)N[C@@H]21)[C@@H](C)O)C(C)C)C(=O)O` (Biotin-DEEASCPERPPALLQEEWETVM-OH), for which the Ki in assay [1] (pH 7.4) came to 7 µM. For the same compound, the dissociation constant Kd is 16 µM in assay [2] and 11.5 µM in assay [3].

Turning to `CSCC[C@H](NC(=O)[C@@H](NC(=O)[C@@H](NC(=O)[C@H](CCC(=O)O)NC(=O)[C@H](Cc1c[nH]c2ccccc12)NC(=O)[C@H](CCC(=O)O)NC(=O)[C@H](CCC(=O)O)NC(=O)[C@H](CCC(N)=O)NC(=O)[C@H](CC(C)C)NC(=S)Nc1ccc2c(c1)C(=O)OC21c2ccc(O)cc2Oc2cc(O)ccc21)[C@@H](C)O)C(C)C)C(=O)O` [FITC-LQEEWETVM] ({FITC}-LQEEWETVM-OH), the Kd in assay [4] (pH 7) stood at 1 µM; in assay [1] (pH 7), 0.6 µM.

On to H-LQEEWETVM-OH [LQEEWETVM], for which the Ki in assay [4] (pH 7.4) worked out at 1.4 µM.

Regarding H-QEEWETVM-OH [QEEWETVM], the equilibrium dissociation constant (Kd) in assay [5] was 11.7 µM; in assay [6], 9.7 µM.

As usually defined, the Ki is the dissociation constant of the complex between target and ligand, obtained from inhibition or displacement. Usually Kd stands for the equilibrium constant for the complex coming apart.
